Data published in patent US10450549B2, “Aryloxyphenoxypropionate tolerance in turfrgass species and use of AAD1 as a selectable marker” (Dow AgroSciences, LLC, priority 2004, dated 2019).
Values joined by “and” are separate entries in the source; they are usually repeats but may differ in a detail not shown here. Equal values may be shown once.

What was measured:
AAD1 (v1) = molecular target: T1, AAD1 (v1) (Sphingobium herbicidovorans, UniProt Q8KSC8); test: Colorimetric phenol detection assay of AAD1 (v1) activity (purified enzyme or E. coli extract); format: biochemical; conditions: for A510, AAD1 / A510, AAD1 (10x): substrate 1 mM; for A510, AAD1: 1 μg purified AAD1 (v1) per 0.16 ml assay; for A510, AAD1 (10x): 10 μg purified AAD1 (v1) per 0.16 ml assay; for rate of product formation relative to 2,4-D / A510: 1 mM; for rate of product formation relative to 2,4-D: 27 μg crude recombinant AAD1 (v1) per assay; for A510 / % 2,4-D: Table 8; for A510: 27 μg crude recombinant AAD1 (v1) extract from E. coli; for % 2,4-D: relative to 2,4-D, crude AAD1 (v1) extract
T1 construct: made in house; host or cells: E. coli BL-21 Star (DE3), plasmid pDAB3203

[1] = tested on: T4 Arabidopsis homozygous for AAD1 (v3) (line AAD1.01.315.076); test: Foliar-applied auxinic herbicides on homozygous T4 AAD1 (v3) Arabidopsis, % injury 14 DAT; format: in vivo, Arabidopsis thaliana; conditions: AAD1.01.315.076.T4 homozygous AAD1 plants
Description: (§1) The ability of AAD1 (v3) to provide resistance to other aryloxyphenoxyalkanoate auxin herbicides in transgenic Arabidopsis was determined by foliar application of various substrates described in Example 6.8. T4 generation Arabidopsis seed, homozygous for AAD1 (v3) (line AAD1.01.315.076) was stratified, and sown into selection trays much like that of Arabidopsis (Example 6.4). A transformed-control line containing PAT and the insect resistance gene Cry1F was planted in a similar manner. Seedlings were transferred to individual 3-inch pots in the greenhouse. All plants were sprayed with the use of a track sprayer set at 187 L/ha. […] All applications were formulated in 200 mM Hepes buffer (pH 7.5). Each treatment was replicated 3-4 times. Plants were evaluated at 3 and 14 days after treatment and are averaged over two experiments.

[2] = tested on: transformed-control line containing PAT and Cry1F; test: Foliar-applied auxinic herbicides on control (PAT/Cry1F, wildtype) Arabidopsis, % injury 14 DAT; format: in vivo, Arabidopsis thaliana; conditions: PatCry1f - Control
Description: as §1

T1 sequence (Q8KSC8 whole entry): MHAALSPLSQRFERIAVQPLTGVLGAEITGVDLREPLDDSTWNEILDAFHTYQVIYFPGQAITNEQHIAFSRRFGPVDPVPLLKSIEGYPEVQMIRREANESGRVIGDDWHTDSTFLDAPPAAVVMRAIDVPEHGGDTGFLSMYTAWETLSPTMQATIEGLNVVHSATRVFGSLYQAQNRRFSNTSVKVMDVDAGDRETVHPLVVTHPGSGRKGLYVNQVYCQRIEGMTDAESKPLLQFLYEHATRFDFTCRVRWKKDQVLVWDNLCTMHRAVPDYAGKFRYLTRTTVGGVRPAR

Compound | A510, AAD1 (AAD1 (v1); Table 3, 15 min) | A510, AAD1 (10x) (AAD1 (v1); Table 3, 15 min) | A510, AAD1 (AAD1 (v1); Table 4) | A510, AAD1 (10x) (AAD1 (v1); Table 4) | other results
CC(Oc1ccc(F)cc1Cl)C(=O)O (racemic) [(R,S)-2-chloro, 4-fluorophenoxy-proprionate] | 0.304 | 2.358 |  |  | 
CC(Oc1cc(F)c(Cl)c(N)c1Cl)C(=O)O (racemic) [(R,S)-3-amino, 5-F-dichlorprop] |  |  |  |  | rate of product formation relative to 2,4-D (AAD1 (v1)): 125%; A510 (AAD1 (v1)): 0.221; % 2,4-D (AAD1 (v1)): 125%
CC(Oc1ccc(Cl)c(N)c1Cl)C(=O)O (racemic) [(R,S)-3-aminodichlorpop] | 0.228 | 2.676 |  |  | fold better than 2,4-D as a substrate (AAD1 (v1); purified AAD1 (v1), Table 3 data, listed as 3-aminodichlorprop): ~7 fold and > 7 fold
CC(Oc1ccc(Oc2ncc(Cl)cc2Cl)cc1)C(=O)O (racemic) [(R,S)- chlorazifop] |  |  | 0.128 | 1.584 | 
CC(Oc1ccc(Oc2ncc(Cl)cc2F)cc1)C(=O)O (racemic) [(R,S)- clodinofop] |  |  | 0.295 | 1.98 | 
CC(Oc1ccc(Oc2nc3ccc(Cl)cc3s2)cc1)C(=O)O (racemic) [(R,S)- fenthiaprop] |  |  | 0.199 | 1.055 | 
CC(Oc1ccc(Oc2ccc(C(F)(F)F)cn2)cc1)C(=O)O (racemic) [(R,S)- fluazifop] |  |  | 0.427 | 2.17 | 
Oc1ccc(Cl)cc1Cl [2,4-DCP] |  |  |  |  | Ave % Injury 14DAT ([1]; 50 g ae/ha foliar): 0%; Ave % Injury 14DAT ([1]; 200 g ae/ha foliar): 0%; Ave % Injury 14DAT ([1]; 800 g ae/ha foliar): 0%; Ave % Injury 14DAT ([1]; 3200 g ae/ha foliar): 0%; Ave % Injury 14DAT ([2]; 50 g ae/ha foliar): 0%; Ave % Injury 14DAT ([2]; 200 g ae/ha foliar): 0%; Ave % Injury 14DAT ([2]; 800 g ae/ha foliar): 0%; Ave % Injury 14DAT ([2]; 3200 g ae/ha foliar): 0%
O=C(O)COc1cc(F)c(Cl)cc1Cl [5-F, 2,4-D] |  |  |  |  | rate of product formation relative to 2,4-D (AAD1 (v1)): 32%; A510 (AAD1 (v1)): 0.056; % 2,4-D (AAD1 (v1)): 32%
O=C(O)COc1ccc(Cl)c2cccnc12 [Cloquintocet] |  |  | 0 | 0.001 | activity of purified AAD1 (v1) on substrate (AAD1 (v1); 1 mM substrate, 1 or 10 μg enzyme): no activity
CC(Oc1ccc(Oc2ncc(C(F)(F)F)cc2Cl)cc1F)C(=O)O (centres unmarked) [compound 25646] |  |  | 0.144 | 1.69 | 
O=C(O)COc1ccc(F)cc1Cl [compound 124988] | 0.007 | 0.058 |  |  | 
O=C(O)CCCOc1ccc(Cl)cc1Cl [compound 178577] | 0.003 | 0.021 |  |  | 
CC(C)COC(=O)COc1ccc(Cl)cc1Cl [compound 190252] | 0.008 | 0.211 |  |  | 
CCC(Oc1ccc(Cl)cc1Cl)C(N)=O (centres unmarked) [compound 192132] | 0.064 | 0.204 |  |  | 
Nc1c(Cl)ccc(OCC(=O)O)c1Cl [compound 11263526] | 0.004 | 0.069 |  |  | 
O=S(=O)([O-])OCCOc1ccc(Cl)cc1Cl.[Na+] [sesone] | 0.02 | 0.177 |  |  | 
